These results are taken from patent US20060079550A1, “Amino acid derivatives useful for the treatment of alzheimer's disease” (priority 2001, published 2006).

The experiment addresses aspartyl proteases, in particular, beta-secretase. In words: Ki of the compounds listed in Tables 1 and 2 (no method described). It is filed as biochemical. The conditions noted are these: Table 1, compounds of formula Ia, W is -(CH2)n-.

The term Ki denotes a measure of affinity in units of concentration, obtained from inhibition or displacement. Read a low Ki as tighter binding.

For the compound `CC(C)c1cc(C(C)C)c(S(=O)(=O)NCCCC[C@H](NC(=O)OCC2c3ccccc3-c3ccccc32)C(=O)O)c(C(C)C)c1` [Compound No. 25, Nε-(2,4,6-triisopropylbenzencsulfonyl)-Nα-(9-fluorenylmethoxycarbonyl)-L-lysine], the Ki is more than 3100 nM.
Under `Cc1ccc(S(=O)(=O)N(CC2CC2)[C@@H](CCCCNC(=O)OCC2c3ccccc3-c3ccccc32)C(=O)O)cc1` [Compound No. 43, Nα-cyclopropylmethyl-Nα-(4-methylbenzenesulfonyl)-Nε-(9-fluorenylmethoxycarbonyl)-L-lysine] stands 3.9 nM; under `CC(C)CN(CCC[C@H](NC(=O)OCC1c2ccccc2-c2ccccc21)C(=O)O)S(=O)(=O)c1ccc(Br)cc1` [Compound No. 41, Nα-(9-fluorenylmethoxycarbonyl)-Nδ-isobutyl-Nδ-(4-bromobenzenesulfonyl)-L-ornithine], more than 50000 nM.
Under `CC(C)CN([C@@H](CCCCNC(=O)CCc1c[nH]c2ccccc12)C(=O)O)S(=O)(=O)c1ccc(N)cc1` [Compound No. 98, Nα-isobutyl-Nα-(4-aminobenzenesulfonyl)-Nε-(3-indolepropionyl)-L-lysine] stands 10.1 nM.
The result for `O=C(N[C@@H](CCCCNS(=O)(=O)Cc1ccccc1)C(=O)O)OCC1c2ccccc2-c2ccccc21` [Compound No. 33, Nε-phenylmethylsulfonyl-Nα-(9-fluorenylmethoxycarbonyl)-L-lysine] reads 20000 nM.
On to `O=C(N[C@@H](CCCCNS(=O)(=O)c1ccc(Br)cc1)C(=O)O)c1ccccc1` [Compound No. 65, Nα-benzoyl-Nε-(4-bromobenzenesulfonyl)-L-lysine], for which the Ki is more than 50000 nM.
The result for `Cc1ccc(S(=O)(=O)N(CC(C)C)C(CCCCNC(=O)OCC2c3ccccc3-c3ccccc32)C(N)=O)cc1` [Compound No. 125, (2R,2S)-N-isobutyl-N-(4-methylbenzenesulfonylamino)-6-(9-fluorenylmethoxycarboxylamino)-1-hexanamide] reads 107 nM; that for `COc1ccc(CCC(=O)NCCCC[C@@H](C(=O)O)N(CC(C)C)S(=O)(=O)c2ccc(N)cc2)cc1` [Compound No. 120, Nα-isobutyl-Nα-(4-aminobenzenesulfonyl)-Nε-(4-methoxydihydrocinnamoyl)-L-lysine], 12.4 nM; that for `Nc1ccc(S(=O)(=O)N[C@@H](CCCCNC(=O)OCC2c3ccccc3-c3ccccc32)C(=O)O)cc1` [Compound No. 106, Nα-(4-aminobenzenesulfonyl)-Nε-(9-fluorenylmethoxycarbonyl)-L-lysine], 4490 nM.
The result for `Cc1cc(C)c(S(=O)(=O)NCCCC[C@H](NC(=O)OCC2c3ccccc3-c3ccccc32)C(=O)O)c(C)c1` [Compound No. 27, Nε-(2,4,6-trimethylbenzenesulfonyl)-Nα-(9-fluorenylmethoxycarbonyl)-L-lysine] reads more than 50000 nM.
The compound `CC(C)CN([C@@H](CCCCNC(=O)CSc1ccccc1)C(=O)O)S(=O)(=O)c1ccc([N+](=O)[O-])cc1` [Compound No. 154, Nα-isobutyl-Nα-(4-Tnitrobenzenesulfonyl)-Nε-phenylthioacetyl-L-lysine] returned a Ki of 10.2 nM.
Under `COc1ccc(C=CC(=O)NCCCC[C@@H](C(=O)O)N(CC(C)C)S(=O)(=O)c2ccc([N+](=O)[O-])cc2)cc1` [Compound No. 113, Nα-isobutyl-Nα-(4-nitrobenzenesulfonyl)-Nε-(4-methoxycinnamoyl)-L-lysine] stands more than 300 nM; under `O=C(NCCCC[C@H](NS(=O)(=O)c1ccccc1[N+](=O)[O-])C(=O)O)OCC1c2ccccc2-c2ccccc21` [Compound No. 70, Nα-(2-nitrobenzenesulfonyl)-Nε-(9-fluorenylmethoxycarbonyl)-L-lysine], more than 12500 nM.
Under `O=C(N[C@@H](CCCCNS(=O)(=O)c1ccc([N+](=O)[O-])cc1)C(=O)O)OCC1c2ccccc2-c2ccccc21` [Compound No. 50, Nε-(4-nitrobenzenesulfonyl)-Nα-(9-fluorenylmethoxycarbonyl)-L-lysine] stands 6000 nM.
Under `Cc1ccc(S(=O)(=O)N(CC(C)C)[C@@H](CCCCNC(=O)C2c3ccccc3Oc3ccccc32)C(=O)O)cc1` [compound 85] stands 14.5 nM; under `Cc1ccc(S(=O)(=O)N(Cc2ccccc2)[C@@H](CCCCNC(=O)OCC2c3ccccc3-c3ccccc32)C(=O)O)cc1` [Compound No. 40, Nα-benzyl-Nα-(4-methylbenzenesulfonyl)-Nε-(9-fluorenylmethoxycarbonyl)-L-lysine], 19.6 nM.
Turning to `Cc1ccc(S(=O)(=O)N(CC(C)C)C(CCCCNC(=O)C=Cc2ccccc2)C(=O)O)cc1` (stereo not drawn) [compound 90], the Ki stood at 747 nM.
The result for `O=C(N[C@@H](CCCCNS(=O)(=O)c1cccc(C(F)(F)F)c1)C(=O)O)OCC1c2ccccc2-c2ccccc21` [Compound No. 34, Nε-(3-trifluoromethylbenzenesulfonyl)-Nα-(9-fluorenylmethoxycarbonyl)-L-lysine] reads 22000 nM; that for `CC(C)CN(C(=O)c1ccccc1)[C@@H](CCCCNC(=O)OCC1c2ccccc2-c2ccccc21)C(=O)O` [Compound No. 46, Nα-isobutyl-Nα-benzoyl-Nε-(9-fluorenylmethoxycarbonyl)-Llysine], more than 100 nM; that for `CC(C)CN([C@@H](CCCCNC(=O)OCc1ccccc1)C(=O)OCc1ccccc1)S(=O)(=O)c1ccc([N+](=O)[O-])cc1` [Compound No. 78, Nα-isobutyl-Nα-(4-nitrobenzenesulfonyl)-Nε-benzyloxycarbonyl-L-lysine Benzyl Ester], more than 1250 nM.
Under `CC(C)CN([C@@H](CCCCNC(=O)OCC1c2ccccc2-c2ccccc21)C(=O)O)S(=O)(=O)c1cccc2ccccc12` [Compound No. 8, Nα-isobutyl-Nα-(1-naphthalenesulfonyl)-Nε-(9-fluorenylmethoxycarbonyl)-L-lysine] stands 54.9 nM.
